Source: paper PMC9785946, “Bioorthogonal Chemistry Approach for the Theranostics of GRPR-Expressing Cancers” (Pharmaceutics, 2022)

What was measured:
[1] = system: PC3 xenografts-bearing mice; assay: Biodistribution of 111In-radioconjugates/radiocomplex in PC3 xenografts-bearing mice; assay type: in vivo, Balb/c-male nude mice
From the text: Blood samples were taken by cardiac puncture at sacrifice.

[2] = Description: The octanol–water partition coefficients (Po/w) of the radioconjugates (20 µL, typically 1 to 5 MBq) were determined by the “shake-flask” method, as previously described.
[3] = system: PC3 cells; assay: Cellular uptake, internalization and blocking assays in PC3 cells; assay type: cell-based, human; conditions: 37 °C
Description: The time-dependent accumulation of ^111In-conjugates in PC3 cells was evaluated according to a previously described procedure. Briefly, PC3 cells were incubated at 37 °C for 5 min to 4 h with about 7.4 kBq of the tested radioconjugates. To assess the surface binding, the cells were treated twice with glycine buffer (50 mM glycine-HCl/100 mM NaCl, pH 2.8). Then, the cells were lysed with NaOH 1 M (internalized radioconjugate). The activity in both cell surface-bound and internalized fractions was measured in a γ-counter and reported as a percentage of the total applied radioactivity. The total cellular uptake was calculated by the addition of the activities recovered from the surface binding and internalized fractions. Assays for each time point were performed in quadruplicate, and data were presented as average ± SD of typically three independent experiments.
To assess the specific GRPR-mediated cellular uptake and internalization of radioconjugates (receptor blocking studies), a similar study was performed in which cells were incubated with the [^111In]In-DOTA-Tz-TCO-PEG4-AR for 1, 2 and 4 h, with or without the GRPR agonist Tyr4-Bombesin (0.25 µg/0.5 mL/well).

[4] = 15 min p.i., listed as [111In]In-DOTA-Tz
[5] = 1 h p.i., listed as [111In]In-DOTA-Tz

## O=C([O-])CN1CCN(CC(=O)[O-])CCN(CC(=O)NCc2ccc(-c3nncnn3)cc2)CCN(CC(=O)[O-])CC1.[111In+3] [[^111In]In-DOTA-Tz]
[1]; 15 min p.i.
  Blood uptake: 2. 7 % I.D./g
  Bone uptake: 0. 8 % I.D./g
  Excretion: 61. % I.D.
  Heart uptake: 0. 9 % I.D./g
  Intestine uptake: 0. 4 % I.D./g
  Kidneys uptake: 4. 4 % I.D./g
  Liver uptake: 0. 9 % I.D./g
  Lungs uptake: 1. 4 % I.D./g
  Muscle uptake: 0. 8 % I.D./g
  Pancreas uptake: 0.42 ± 0.02 % I.D./g
  Spleen uptake: 0. 45 % I.D./g
  Stomach uptake: 0. 4 % I.D./g
  Tumor uptake: 2.46 ± 0.6 % I.D./g
[1]; [4]
  Pancreas uptake: 0. 42 % I.D./g
  Tumor uptake: 2. 46 % I.D./g
[1]; 1 h p.i.
  Blood uptake: 0. 4 % I.D./g
  Bone uptake: 0. 2 % I.D./g
  Excretion: 88 % I.D.
  Heart uptake: 0. 17 % I.D./g
  Intestine uptake: 0. 29 % I.D./g
  Kidneys uptake: 2. 1 % I.D./g
  Liver uptake: 0. 4 % I.D./g
  Lungs uptake: 0. 38 % I.D./g
  Muscle uptake: 0. 1 % I.D./g
  Pancreas uptake: 0.09 ± 0.06 % I.D./g
  Spleen uptake: 0. 14 % I.D./g
  Stomach uptake: 0. 17 % I.D./g
  Tumor uptake: 0.5 ± 0.2 % I.D./g
[1]; [5]
  Pancreas uptake: 0. 09 % I.D./g
  Tumor uptake: 0. 5 % I.D./g
[1]; 24 h p.i.
  Blood uptake: 0. 03 % I.D./g
  Bone uptake: 0. 04 % I.D./g
  Excretion: 97. % I.D.
  Heart uptake: 0. 02 % I.D./g
  Intestine uptake: 0. 09 % I.D./g
  Kidneys uptake: 0. 87 % I.D./g
  Liver uptake: 0. 12 % I.D./g
  Lungs uptake: 0. 07 % I.D./g
  Muscle uptake: 0. 021 % I.D./g
  Pancreas uptake: 0. 03 % I.D./g
  Spleen uptake: 0. 08 % I.D./g
  Stomach uptake: 0. 03 % I.D./g
  Tumor uptake: 0. 13 % I.D./g

## CC(C)C[C@H](NC(=O)C[C@H](O)[C@H](CC(C)C)NC(=O)[C@H](Cc1c[nH]cn1)NC(=O)CNC(=O)[C@@H](NC(=O)[C@H](C)NC(=O)[C@H](Cc1c[nH]c2ccccc12)NC(=O)[C@H](CCC(N)=O)NC(=O)[C@@H](Cc1ccccc1)NC(=O)CN1CCC(NC(=O)OC2CCCc3c(cnnc3-c3ccc(CNC(=O)CCC(C(=O)O)N4CCN(CC(=O)O)CCN(CC(=O)O)CCN(CC(=O)O)CC4)cc3)CC2)CC1)C(C)C)C(N)=O (stereo partly shown) [[^111In]In-DOTAGA-Tz-TCO-Pip-AR, metal not drawn]
[2]
  logP: -0.9
[3]
  Distribution of cell-associated activity (surface-bound vs internalized): almost all cell-associated activity corresponded to the membrane-bound fraction
[3]; 5 min to 4 h
  Maximum cellular uptake: around 10 % of the total activity applied per million cells
